Measurements: PubChem BioAssay AID330 (DTP/NCI, 2004)
“And” between values parts separate entries of the source, which are not always exact repeats. Equal entries are not always repeated. Toxic doses and inconclusive results are not listed.

Tested on: P388 leukemia ip, CD2F1 mice, survival T/C
Assay: NCI In Vivo Anticancer Drug Screen. Data for tumor model P388 Leukemia (intraperitoneal) in CD2F1 (CDF1) mice
Conditions: endpoint: median survival time, higher = longer survival
Procedure, shortened: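 Mice carrying the transplanted tumor received test compound or vehicle. Survival was recorded in each group, and the value is the treated-group measurement divided by that of the vehicle-treated control group.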

[1] = dose: 6.25 mg/kg/injection, schedule: Q01DX009 (ip), vehicle: Klucel (hydroxypropylcellulose) (HPC)
[2] = dose: 60.0 mg/kg/injection, schedule: Q01DX005 (ip), vehicle: saline with Tween-80
[3] = dose: 120.0 mg/kg/injection, schedule: Q01DX005 (ip), vehicle: saline with Tween-80
[4] = dose: 240.0 mg/kg/injection, schedule: Q01DX005 (ip), vehicle: saline with Tween-80
[5] = dose: 50.0 mg/kg/injection, schedule: Q01DX005 (ip), vehicle: Klucel (hydroxypropylcellulose) (HPC)
[6] = dose: 100.0 mg/kg/injection, schedule: Q01DX005 (ip), vehicle: Klucel (hydroxypropylcellulose) (HPC)
[7] = dose: 200.0 mg/kg/injection, schedule: Q01DX005 (ip), vehicle: Klucel (hydroxypropylcellulose) (HPC)
[8] = dose: 60.0 mg/kg/injection, schedule: Q01DX005 (ip), vehicle: Klucel (hydroxypropylcellulose) (HPC)
[9] = dose: 120.0 mg/kg/injection, schedule: Q01DX005 (ip), vehicle: Klucel (hydroxypropylcellulose) (HPC)
[10] = dose: 50.0 mg/kg/injection, schedule: Q01DX009 (ip), vehicle: saline
[11] = dose: 50.0 mg/kg/injection, schedule: Q01DX009 (ip), vehicle: saline with Tween-80
[12] = dose: 200.0 mg/kg/injection, schedule: Q01DX009 (ip), vehicle: saline with Tween-80

In the case of `C=C1C(=O)OC2C3OC(C)(CCC(O)C3COC(C)=O)CC(OC(=O)/C(=C/C)COC(C)=O)C12` (stereo not given), the T/C (dose: 0.75 mg/kg/injection, schedule: Q01DX009 (ip), vehicle: saline) is reported as 116 % of control and 118 % of control, the T/C (dose: 0.78 mg/kg/injection, schedule: Q01DX009 (ip), vehicle: Klucel (hydroxypropylcellulose) (HPC)) is reported as 99 % of control and the T/C (dose: 1.5 mg/kg/injection, schedule: Q01DX009 (ip), vehicle: saline) is reported as 100 % of control and 111 % of control. For the same compound, the T/C (dose: 1.56 mg/kg/injection, schedule: Q01DX009 (ip), vehicle: Klucel (hydroxypropylcellulose) (HPC)) was 113 % of control, the T/C (dose: 3.0 mg/kg/injection, schedule: Q01DX009 (ip), vehicle: saline) was 101 % of control and 106 % of control and the T/C (dose: 3.12 mg/kg/injection, schedule: Q01DX009 (ip), vehicle: Klucel (hydroxypropylcellulose) (HPC)) was 105 % of control. For the same compound, the T/C [1] was 97 % of control.

With `CN(C)C1CS(=O)(=O)OC2=C1CCSc1ccccc12` (stereo not given) the T/C [2] was 102 % of control, the T/C [3] was 99 % of control and the T/C [4] was 100 % of control.

For `O=NNc1ccc(Sc2ccc(NN=O)nc2)cc1`, the T/C (dose: 3.12 mg/kg/injection, schedule: Q01DX009 (ip), vehicle: water) was 124 % of control, the T/C (dose: 6.25 mg/kg/injection, schedule: Q01DX009 (ip), vehicle: water) was 123 % of control and the T/C (dose: 12.5 mg/kg/injection, schedule: Q01DX009 (ip), vehicle: water) was 100 % of control.

In the case of `CCCNc1cc(C)cc2[nH]c(C)nc12`, the T/C (dose: 25.0 mg/kg/injection, schedule: Q01DX005 (ip), vehicle: Klucel (hydroxypropylcellulose) (HPC)) is reported as 103 % of control, the T/C [5] is reported as 100 % of control and the T/C [6] is reported as 103 % of control. For the same compound, the T/C [7] was 94 % of control.

`CC(=O)Oc1ccc2[nH]c(C)cc2c1` was tested, and the T/C (dose: 100.0 mg/kg/injection, schedule: Q01DX001 (ip), vehicle: saline with Tween-80) was 100 % of control, the T/C (dose: 200.0 mg/kg/injection, schedule: Q01DX001 (ip), vehicle: saline with Tween-80) was 98 % of control and the T/C (dose: 400.0 mg/kg/injection, schedule: Q01DX001 (ip), vehicle: saline with Tween-80) was 93 % of control. For the same compound, the T/C (dose: 800.0 mg/kg/injection, schedule: Q01DX001 (ip), vehicle: saline with Tween-80) was 103 % of control.

With `OCCN1CCN(CC/C=C2\c3ccccc3COc3ccc(Cl)cc32)CC1` the T/C (dose: 6.25 mg/kg/injection, schedule: Q04DX003 (ip), vehicle: saline) was 100 % of control, the T/C (dose: 12.5 mg/kg/injection, schedule: Q04DX003 (ip), vehicle: saline) was 114 % of control and 117 % of control and the T/C (dose: 25.0 mg/kg/injection, schedule: Q04DX003 (ip), vehicle: saline) was 110 % of control. The T/C (dose: 50.0 mg/kg/injection, schedule: Q04DX003 (ip), vehicle: saline) was 110 % of control and the T/C (dose: 100.0 mg/kg/injection, schedule: Q04DX003 (ip), vehicle: saline) was 97 % of control.

In the case of `O=C(Nc1cccc(Cl)c1)/C(Cl)=C1/Sc2ccccc2NC1=O`, the T/C (dose: 50.0 mg/kg/injection, schedule: Q01DX005 (ip), vehicle: saline with Tween-80) is reported as 105 % of control, the T/C (dose: 100.0 mg/kg/injection, schedule: Q01DX005 (ip), vehicle: saline with Tween-80) is reported as 98 % of control and the T/C (dose: 200.0 mg/kg/injection, schedule: Q01DX005 (ip), vehicle: saline with Tween-80) is reported as 98 % of control.

In the case of `COc1ccc2ccc(/C=C/[N+](=O)[O-])cc2c1OC`, the T/C (dose: 3.13 mg/kg/injection, schedule: Q01DX009 (ip), vehicle: other) is reported as 109 % of control, the T/C (dose: 6.25 mg/kg/injection, schedule: Q01DX009 (ip), vehicle: other) is reported as 108 % of control and the T/C (dose: 12.5 mg/kg/injection, schedule: Q01DX009 (ip), vehicle: other) is reported as 110 % of control. For the same compound, the T/C (dose: 25.0 mg/kg/injection, schedule: Q01DX009 (ip), vehicle: other) was 106 % of control.

`c1ccc2c(c1)NC(NC1Nc3ccccc3N1)N2` was tested, and the T/C (dose: 30.0 mg/kg/injection, schedule: Q01DX005 (ip), vehicle: saline with Tween-80) was 91 % of control and the T/C [2] was 86 % of control and 97 % of control.

In the case of `CC1(C)N=C(NN=C2CCCCC2)SP1(=O)NCC(=O)O` (stereo not given), the T/C [8] is reported as 101 % of control, the T/C [9] is reported as 100 % of control and the T/C (dose: 240.0 mg/kg/injection, schedule: Q01DX005 (ip), vehicle: Klucel (hydroxypropylcellulose) (HPC)) is reported as 101 % of control.

With `O=C(O)C1[N-]CCNC1C(=O)O.[O]=[V][OH]` (stereo not given) the T/C [10] was 91 % of control.

With `COc1ccc(C(C2C(=O)CC(C)(C)CC2=O)C2C(=O)CC(C)(C)CC2=O)cc1` the T/C [5] was 104 % of control, the T/C [6] was 101 % of control and the T/C [7] was 106 % of control.

For `CC(=O)Nc1ccc(S(=O)(=O)n2c(=O)oc3cc(Cl)ccc32)cc1`, the T/C [5] was 86 % of control, the T/C [6] was 99 % of control and the T/C [7] was 86 % of control.

`CN(C)c1ccc2c3c(c(=O)oc2c1)CCC3` was tested, and the T/C (dose: 3.12 mg/kg/injection, schedule: Q01DX009 (ip), vehicle: saline with Tween-80) was 102 % of control, the T/C (dose: 6.25 mg/kg/injection, schedule: Q01DX009 (ip), vehicle: saline with Tween-80) was 112 % of control and the T/C (dose: 12.5 mg/kg/injection, schedule: Q01DX009 (ip), vehicle: saline with Tween-80) was 114 % of control and 115 % of control. For the same compound, the T/C (dose: 25.0 mg/kg/injection, schedule: Q01DX009 (ip), vehicle: saline with Tween-80) was 107 % of control, the T/C [11] was 104 % of control and 111 % of control and the T/C [12] was 94 % of control.

With `C/C=C\n1ccccc1=O` the T/C [10] was 107 % of control, the T/C (dose: 100.0 mg/kg/injection, schedule: Q01DX009 (ip), vehicle: saline) was 113 % of control and the T/C (dose: 200.0 mg/kg/injection, schedule: Q01DX009 (ip), vehicle: saline) was 109 % of control.

In the case of `C=C(C)C(=O)c1ccc(C(=O)O)cc1`, the T/C (dose: 12.5 mg/kg/injection, schedule: Q04DX002 (ip), vehicle: saline with Tween-80) is reported as 105 % of control, the T/C (dose: 25.0 mg/kg/injection, schedule: Q04DX002 (ip), vehicle: saline with Tween-80) is reported as 114 % of control and the T/C (dose: 50.0 mg/kg/injection, schedule: Q04DX002 (ip), vehicle: saline with Tween-80) is reported as 122 % of control.

For `O=c1nc2n(c3ncccc13)CC=NN2`, the T/C [2] was 99 % of control and the T/C [3] was 100 % of control.

`CC(C)(C)c1ccc(S(=O)(=O)C[CH2][Sn]([CH3])([CH3])[CH3])cc1` was tested, and the T/C (dose: 6.25 mg/kg/injection, schedule: Q01DX009 (ip), vehicle: saline) was 104 % of control and the T/C (dose: 12.5 mg/kg/injection, schedule: Q01DX009 (ip), vehicle: saline) was 87 % of control.

For `CCN1CCC(=C(c2ccccc2)c2ccccc2)C1`, the T/C [1] was 102 % of control, the T/C (dose: 12.5 mg/kg/injection, schedule: Q01DX009 (ip), vehicle: Klucel (hydroxypropylcellulose) (HPC)) was 102 % of control and the T/C (dose: 25.0 mg/kg/injection, schedule: Q01DX009 (ip), vehicle: Klucel (hydroxypropylcellulose) (HPC)) was 100 % of control. For the same compound, the T/C (dose: 50.0 mg/kg/injection, schedule: Q01DX009 (ip), vehicle: Klucel (hydroxypropylcellulose) (HPC)) was 110 % of control and the T/C (dose: 100.0 mg/kg/injection, schedule: Q01DX009 (ip), vehicle: Klucel (hydroxypropylcellulose) (HPC)) was 108 % of control.

For `C[C@H](CCC(=O)O)[C@H]1CC[C@H]2[C@@H]3[C@H](O)C[C@@H]4C[C@H](O)CC[C@]4(C)[C@H]3C[C@H](O)[C@]12C` (tested in a mixture with another compound), the T/C (dose: 75.0 mg/kg/injection, schedule: Q01DX009 (ip), vehicle: saline sonified) was 104 % of control and the T/C (dose: 300.0 mg/kg/injection, schedule: Q01DX009 (ip), vehicle: saline sonified) was 163 % of control.

`O=[N+]([O-])c1cc2cc(Cl)c3ccccc3c2o1` was tested, and the T/C [5] was 100 % of control, the T/C [6] was 102 % of control and the T/C [7] was 102 % of control.

For `S=C1SCN(C2CCCCCCCCCCC2)CN1C1CCCCCCCCCCC1`, the T/C [11] was 94 % of control, the T/C (dose: 100.0 mg/kg/injection, schedule: Q01DX009 (ip), vehicle: saline with Tween-80) was 93 % of control and the T/C [12] was 97 % of control. For the same compound, the T/C (dose: 400.0 mg/kg/injection, schedule: Q01DX009 (ip), vehicle: saline with Tween-80) was 101 % of control.

In the case of `N#CC(C#N)=C1Cc2ccccc2C1`, the T/C (dose: 25.0 mg/kg/injection, schedule: Q01DX001 (ip), vehicle: saline with Tween-80) is reported as 109 % of control and the T/C (dose: 50.0 mg/kg/injection, schedule: Q01DX001 (ip), vehicle: saline with Tween-80) is reported as 100 % of control.

`Cc1ccc(S(=O)(=O)/C=C2\COc3ccccc3C2=O)cc1` was tested, and the T/C (dose: 100.0 mg/kg/injection, schedule: Q04DX002 (ip), vehicle: saline) was 100 % of control, the T/C (dose: 200.0 mg/kg/injection, schedule: Q04DX002 (ip), vehicle: saline) was 100 % of control and the T/C (dose: 400.0 mg/kg/injection, schedule: Q04DX002 (ip), vehicle: saline) was 97 % of control.

For `c1ccc2c(c1)OCc1nccn1-2`, the T/C [8] was 99 % of control and the T/C [9] was 100 % of control.

`COc1cccc(C(=O)NCCNCCNC(=O)c2cccc(OC)c2OC)c1OC` was tested, and the T/C [2] was 108 % of control, the T/C [3] was 104 % of control and the T/C [4] was 94 % of control.
